We go through eight molecules from patent US10259807B2, “1-(piperazin-1-yl)-2-([1,2,4]triazol-1-yl)-ethanone derivatives” (Idorsia Pharmaceuticals Ltd., priority 2013, dated 2019).

pIC50: −log10 of the molar value.

Data set [1] is described as follows: Determination of pharmacokinetic parameters in rats. Conditions: for AUC: male, Wistar (RccHan:WIST), rat, po, 2 mg/kg.
Protocol: Male Wistar rats (RccHan:WIST) were obtained from Harlan (Venray, The Netherlands) and used for pharmacokinetic experiments after an acclimatization period of at least 7 days. The body weight of the rats was about 250 g at the day of the experiment. Two days prior to dosing, rats were anesthetized for surgery via inhalation of isoflurane (4-5% for induction and 1.5-3% for maintenance) in oxygen. Buprenorphine was dosed as analgesic at 0.03 mg/kg sc half an hour before surgery. Under aseptic conditions, catheters were implanted into jugular vein for dosing and carotid artery to allow for multiple serial blood sampling. […] Compounds were administered intravenously via a 5-minute infusion at doses of 0.5 or 1 mg/kg body weight formulated as solutions in water prepared by pH adjustment or as an aqueous mixed micellar vehicle based on phospholipids and bile acids (mixed micelles). […] Oral formulations were solutions in water prepared by pH adjustment or dispersions prepared by addition of a DMSO stock solution of the compounds to methylcellulose (0.5% w/v) in water. […] Blood samples were centrifuged at 3000 g (10 minutes, 4° C.) and plasma was submitted to LC-MS/MS analysis.
The target of data set [2] is T1, human CXCR3A (Homo sapiens, UniProt P49682).
T1 construct: expressed in transfected cells; host or cells: CHO-K1
T1 sequence (P49682 1-368): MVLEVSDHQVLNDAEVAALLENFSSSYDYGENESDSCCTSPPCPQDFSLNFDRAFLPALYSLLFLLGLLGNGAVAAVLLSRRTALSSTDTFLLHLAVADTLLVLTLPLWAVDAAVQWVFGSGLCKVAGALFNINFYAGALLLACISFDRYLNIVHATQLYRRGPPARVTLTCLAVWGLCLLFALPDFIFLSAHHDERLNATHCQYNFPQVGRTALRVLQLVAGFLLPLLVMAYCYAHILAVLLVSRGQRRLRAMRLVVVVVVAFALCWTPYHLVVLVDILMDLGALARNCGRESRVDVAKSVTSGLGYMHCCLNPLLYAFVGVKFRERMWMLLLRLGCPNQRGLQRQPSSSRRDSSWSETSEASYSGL
Put plainly: FLIPR assay (CXCL10-induced calcium signal in CHO-K1 cells). The format is cell-based. Particulars: CHO-K1 cells expressing human CXCR3A coupled to Galpha(16); CXCL10 agonist 20 nM; mean values.

Data set [3] deals with T2, hERG K channel (Homo sapiens, UniProt Q12809).
T2 construct: host or cells: CHO
T2 sequence (Q12809 whole entry): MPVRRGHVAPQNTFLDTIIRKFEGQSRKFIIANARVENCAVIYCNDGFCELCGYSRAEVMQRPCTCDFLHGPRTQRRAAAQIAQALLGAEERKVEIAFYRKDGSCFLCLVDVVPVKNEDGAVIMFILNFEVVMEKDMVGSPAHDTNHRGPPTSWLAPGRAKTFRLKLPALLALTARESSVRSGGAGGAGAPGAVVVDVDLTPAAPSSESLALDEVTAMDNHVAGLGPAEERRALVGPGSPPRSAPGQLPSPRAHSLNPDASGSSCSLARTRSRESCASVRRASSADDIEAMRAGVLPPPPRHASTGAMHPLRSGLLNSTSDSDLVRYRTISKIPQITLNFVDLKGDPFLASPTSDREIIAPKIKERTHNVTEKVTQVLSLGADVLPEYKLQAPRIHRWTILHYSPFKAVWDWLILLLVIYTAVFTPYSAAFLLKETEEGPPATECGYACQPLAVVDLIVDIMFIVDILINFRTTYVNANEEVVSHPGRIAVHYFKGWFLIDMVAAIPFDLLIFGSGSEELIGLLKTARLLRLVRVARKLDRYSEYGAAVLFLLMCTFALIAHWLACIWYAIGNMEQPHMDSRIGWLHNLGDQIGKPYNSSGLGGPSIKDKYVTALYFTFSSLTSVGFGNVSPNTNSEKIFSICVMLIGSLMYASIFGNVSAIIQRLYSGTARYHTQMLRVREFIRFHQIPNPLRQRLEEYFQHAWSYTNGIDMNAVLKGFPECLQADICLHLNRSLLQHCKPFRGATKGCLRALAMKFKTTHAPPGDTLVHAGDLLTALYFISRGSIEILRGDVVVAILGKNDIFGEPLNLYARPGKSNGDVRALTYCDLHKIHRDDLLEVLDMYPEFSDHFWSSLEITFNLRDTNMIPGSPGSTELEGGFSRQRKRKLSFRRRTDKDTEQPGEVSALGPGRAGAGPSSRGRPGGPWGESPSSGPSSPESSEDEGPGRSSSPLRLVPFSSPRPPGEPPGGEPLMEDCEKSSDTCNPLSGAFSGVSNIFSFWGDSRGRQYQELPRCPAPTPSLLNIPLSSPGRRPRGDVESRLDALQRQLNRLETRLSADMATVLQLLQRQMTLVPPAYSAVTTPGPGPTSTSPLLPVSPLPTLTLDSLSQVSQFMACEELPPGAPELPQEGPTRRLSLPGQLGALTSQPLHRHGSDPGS
Put plainly: hERG Q-Patch assay. The format is cell-based. Conditions: CHO cells expressing hERG, K+ tail current 3 min after application, mean of two or three experiments.

Data set [4] in a line: Human liver microsome assay (metabolic stability). The format is in vitro ADME. Conditions: human liver microsomes 0.5 mg/mL, compound 1 μM, 37° C., pH 7.4, NADPH-regenerating system. As to the method:
Incubation with human liver microsomes was performed to assess metabolic stability at a single compound concentration of 1 μM. A 1 μL-aliquot of the compounds stock solutions in DMSO were added to 899 μL of 100 mM phosphate buffer (pH 7.4) containing the liver microsomes at a concentration of 0.5 mg/mL and the mixture was incubated at 37° C. in an Eppendorf thermomixer at 450 rpm. The reaction was initiated by addition of 100 μL of NADPH-regenerating system containing the glucose-6-phosphate dehydrogenase and at the pre-defined time points, 0, 1.5, 2.5, 5, 10, and 15 min, 100 μL of the incubation was transferred in 100 μL of ice-cold methanol to stop the reaction. Samples were centrifuged at 3220 g for 20 min at 4° C. and the supernatants were submitted to LC/MS-MS analysis.
Calculation of intrinsic clearance CLint:
Natural logarithm of remaining amount of compound was plotted as function of time and the slope of the line determined.
Elimination rate constant (k)=−slope
V=volume of incubation/amount of protein
(Microsomes from liver hold many membrane-bound enzymes, among them those of drug oxidation.)

A word on the AUC: it is the area under the concentration-time curve, a measure of exposure. A low value points to less exposure. Turning to `COc1ncc(-c2cc(C(F)(F)F)ccc2N2CCN(C(=O)Cn3nc(C)cc3C)CC2)cn1` [reference compound 1, 2-(3,5-Dimethyl-pyrazol-1-yl)-1-{4-[2-(2-methoxy-pyrimidin-5-yl)-4-trifluoromethyl-phenyl]piperazin-1-yl}-ethanone], the AUC in data set [1] (plasma) turned out to be 273 ng·h/mL.
On the same count and under the same terms, then `CSc1ncc(-c2cc(C(F)(F)F)ccc2N2CCN(C(=O)Cn3nc(C)cc3C)CC2)cn1` [reference compound 2, 2-(3,5-Dimethyl-pyrazol-1-yl)-1-{4-[2-(2-methylsulfanyl-pyrimidin-5-yl)-4-trifluoromethyl-phenyl]-piperazin-1-yl}-ethanone], with 202 ng·h/mL.
For the molecule `Cc1nc(C)n(CC(=O)N2CCN(c3sc(C(F)(F)F)nc3-c3cnc(C(F)(F)F)nc3)C[C@H]2C)n1` [Example 24, 2-(3,5-Dimethyl-[1,2,4]triazol-1-yl)-1-{(R)-2-methyl-4-[2-trifluoromethyl-4-(2-trifluoromethyl-pyrimidin-5-yl)-thiazol-5-yl]-piperazin-1-yl}-ethanone], in data set [1] (compared to reference compounds disclosed in WO 2010/126811), the “plasma concentration after oral administration” value is recorded as “surprisingly high plasma concentration”. Further, the AUC in data set [1] (in vivo, pH 2.1) came to 14000 ng·h/mL.
The term pIC50 denotes the negative decadic logarithm of the IC50, by convention in mol/L. In general, microsomal CLint refers to the capacity of the preparation to metabolise the compound, expressed as a volume cleared per time. A lower microsomal CLint goes with greater metabolic stability. For `CCCc1ncc(-c2nc(C(F)(F)F)sc2N2CCN(C(=O)Cn3nc(C)nc3C)[C@H](C)C2)cn1` [Example 22, 2-(3,5-Dimethyl-[1,2,4]triazol-1-yl)-1-{(R)-2-methyl-4-[4-(2-propyl-pyrimidin-5-yl)-2-trifluoromethyl-thiazol-5-yl]-piperazin-1-yl}-ethanone], in data set [2], the negative logarithm of the IC50 (pIC50) is 8.54. The “% block” value in data set [3] (concentration 300 nM) was found to be 1%; in data set [3] (concentration 3000 nM), 7%. In data set [4], the intrinsic clearance (microsomal CLint) at 1 µM amounted to 78 µL/min/mg.
The like results for `Cc1nc(C)n(CC(=O)N2CCN(c3sc(C(F)(F)F)nc3-c3cnc(N4CCCC4)nc3)C[C@H]2C)n1` [Example 36, 2-(3,5-Dimethyl-[1,2,4]triazol-1-yl)-1-{(R)-2-methyl-4-[4-(2-pyrrolidin-1-yl-pyrimidin-5-yl)-2-trifluoromethyl-thiazol-5-yl]-piperazin-1-yl}-ethanone] were, in that order, 8.80, 7%, 15% and 338 µL/min/mg.
The like results for `CCOc1ccc(-c2nc(C(F)(F)F)sc2N2CCN(C(=O)Cn3nc(C)nc3C)[C@H](C)C2)cn1` [Example 15, 2-(3,5-Dimethyl-[1,2,4]triazol-1-yl)-1-{(R)-4-[4-(6-ethoxy-pyridin-3-yl)-2-trifluoromethyl-thiazol-5-yl]-2-methyl-piperazin-1-yl}-ethanone] were, in that order, 8.04, 1%, 13% and 66 µL/min/mg.
The like results for `Cc1nc(C)n(CC(=O)N2CCN(c3sc(C(F)(F)F)nc3-c3ccc(Cl)cc3)C[C@H]2C)n1` [Example 7, 1-{(R)-4-[4-(4-Chloro-phenyl)-2-trifluoromethyl-thiazol-5-yl]-2-methyl-piperazin-1-yl}-2-(3,5-dimethyl-[1,2,4]triazol-1-yl)-ethanone] were, in that order, 8.03, 34%, 88% and 7 µL/min/mg.
Turning to `CNc1ncc(-c2cc(C(F)(F)F)ccc2N2CCN(C(=O)Cn3nc(C)cc3C)CC2)cn1` [reference compound 3, 2-(3,5-Dimethyl-pyrazol-1-yl)-1-{4-[2-(2-methylamino-pyrimidin-5-yl)-4-trifluoromethyl-phenyl]-piperazin-1-yl}-ethanone], in data set [1] (plasma, pH 3.03), the exposure (AUC) was 271 ng·h/mL.
